Measured values as given in article PMC11123841, “Discovery and Synthesis of Hydroxy-L-Proline Blockers of the Neutral Amino Acid Transporters SLC1A4 (ASCT1) and SLC1A5 (ASCT2)” (Molecules, 2024).

Legend:
[1] = target: T1, SLC1A3 (EAAT1) (Homo sapiens, UniProt P43003); assay: TEVC in oocytes expressing glutamate transporter; format: cell-based; details: SLC1A3; applied at 1 mM
T1 construct: expressed in transfected cells; host or cells: Xenopus laevis oocytes (cRNA injection)
Method: (§1) Additionally, 4-HP applied at 1 mM was used to assess activity at the glutamate transporters SLC1A3 or SLC1A1.
(§2) BPOHP activity was evaluated against the glutamate transporters paralogs within the SLC1A gene family (SLC1A 1–3) as well as at neutral amino acid transporters that share common ligand substrates with the SLC1 family including SLC38A1,2, and 4 (ATA1, ATA2, ATA3) and heteromeric transporters SLC7A10+SLC3A2 (asc-1/4f2).
(§3) Uptake was halted by washing 3 times with 4 °C ND96 buffer. Oocytes were then lysed in 0.1% Triton X-100, and radioactivity was counted via liquid scintillation. Dose response curves were generated by fitting fractional inhibition (I) to the expression I = Imax × [inhibitor]/([inhibitor] + IC50).
(§4) Two-electrode voltage clamp (TEVC) transporter currents were recorded with a GeneClamp 500 amplifier and Digidata 1320A analog–digital interface (Molecular Devices, San Jose, CA, USA). Electrodes (0.2–1.0 MΩ) were filled with 3M KCl and the recording chamber was grounded with an agar bridge. Data were acquired with Axograph (v1.7.6) and LabChart (v7) and analyzed with Kaleidagraph software (v4.1) (Synergy, Reading, PA, USA). Uncoupled anion currents associated with the transport of substrate and block of SLC1A4 or SLC1A5 mediated leak conductance were recorded in the presence of Ringer with 50% substitution of NaCl by NaSCN to amplify the non-transported anion conductance.
(§5) Figure SM-2 TEVC from oocytes expressing SLC1A1-3 transporters.
(§6) (1 picture or pasted object on this page, not shown here)

[2] = target: T2, SLC1A1 (EAAT3) (Homo sapiens, UniProt P43005); assay: TEVC in oocytes expressing glutamate transporter; format: cell-based; details: SLC1A1; applied at 1 mM
T2 construct: expressed in transfected cells; host or cells: Xenopus laevis oocytes (cRNA injection)
T2 sequence (P43005 1-524): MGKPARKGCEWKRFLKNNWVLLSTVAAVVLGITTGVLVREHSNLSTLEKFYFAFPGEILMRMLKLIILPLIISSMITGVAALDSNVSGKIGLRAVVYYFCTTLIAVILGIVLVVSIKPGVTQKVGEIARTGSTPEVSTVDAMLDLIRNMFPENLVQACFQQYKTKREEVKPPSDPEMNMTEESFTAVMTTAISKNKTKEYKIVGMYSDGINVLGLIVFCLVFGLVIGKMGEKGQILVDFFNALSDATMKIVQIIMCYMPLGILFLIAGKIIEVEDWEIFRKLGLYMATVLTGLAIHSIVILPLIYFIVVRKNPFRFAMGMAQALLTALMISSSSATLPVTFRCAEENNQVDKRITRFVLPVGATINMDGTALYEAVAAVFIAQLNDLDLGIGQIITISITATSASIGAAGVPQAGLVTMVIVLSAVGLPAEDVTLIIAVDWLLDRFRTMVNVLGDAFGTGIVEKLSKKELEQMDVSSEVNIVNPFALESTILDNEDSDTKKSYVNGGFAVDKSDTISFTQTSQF
Method: as §1, §2, §3, §4, §5, §6

[3] = target: T3, SLC38A2 (ATA2) (Homo sapiens, UniProt Q96QD8); assay: TEVC electrogenic coupled currents in oocytes; format: cell-based; details: induced currents
T3 construct: expressed in transfected cells; host or cells: Xenopus laevis oocytes (cRNA injection)
T3 sequence (Q96QD8 1-506): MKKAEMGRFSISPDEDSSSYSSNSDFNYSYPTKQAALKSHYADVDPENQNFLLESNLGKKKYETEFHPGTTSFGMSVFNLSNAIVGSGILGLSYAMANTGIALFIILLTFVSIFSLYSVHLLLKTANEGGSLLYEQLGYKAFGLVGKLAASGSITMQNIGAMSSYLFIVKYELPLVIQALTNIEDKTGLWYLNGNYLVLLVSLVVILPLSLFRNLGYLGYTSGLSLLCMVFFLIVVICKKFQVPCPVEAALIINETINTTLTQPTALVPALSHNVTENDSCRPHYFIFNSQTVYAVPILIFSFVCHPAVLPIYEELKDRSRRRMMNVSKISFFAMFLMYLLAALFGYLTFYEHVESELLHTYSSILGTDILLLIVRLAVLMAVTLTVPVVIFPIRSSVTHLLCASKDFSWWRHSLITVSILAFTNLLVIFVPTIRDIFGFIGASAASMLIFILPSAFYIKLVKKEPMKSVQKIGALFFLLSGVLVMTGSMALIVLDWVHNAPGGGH
Method: as §1, §2, §3
Two-electrode voltage clamp (TEVC) transporter currents were recorded with a GeneClamp 500 amplifier and Digidata 1320A analog–digital interface (Molecular Devices, San Jose, CA, USA). […] Data were acquired with Axograph (v1.7.6) and LabChart (v7) and analyzed with Kaleidagraph software (v4.1) (Synergy, Reading, PA, USA). Uncoupled anion currents associated with the transport of substrate and block of SLC1A4 or SLC1A5 mediated leak conductance were recorded in the presence of Ringer with 50% substitution of NaCl by NaSCN to amplify the non-transported anion conductance. […]

[4] = target: T4, SLC1A5 (Mus musculus, UniProt P51912); assay: [3H]L-Gln radiolabeled uptake competition in oocytes; format: cell-based
T4 construct: expressed in transfected cells; host or cells: Xenopus laevis oocytes (cRNA injection)
T4 sequence (P51912 1-553): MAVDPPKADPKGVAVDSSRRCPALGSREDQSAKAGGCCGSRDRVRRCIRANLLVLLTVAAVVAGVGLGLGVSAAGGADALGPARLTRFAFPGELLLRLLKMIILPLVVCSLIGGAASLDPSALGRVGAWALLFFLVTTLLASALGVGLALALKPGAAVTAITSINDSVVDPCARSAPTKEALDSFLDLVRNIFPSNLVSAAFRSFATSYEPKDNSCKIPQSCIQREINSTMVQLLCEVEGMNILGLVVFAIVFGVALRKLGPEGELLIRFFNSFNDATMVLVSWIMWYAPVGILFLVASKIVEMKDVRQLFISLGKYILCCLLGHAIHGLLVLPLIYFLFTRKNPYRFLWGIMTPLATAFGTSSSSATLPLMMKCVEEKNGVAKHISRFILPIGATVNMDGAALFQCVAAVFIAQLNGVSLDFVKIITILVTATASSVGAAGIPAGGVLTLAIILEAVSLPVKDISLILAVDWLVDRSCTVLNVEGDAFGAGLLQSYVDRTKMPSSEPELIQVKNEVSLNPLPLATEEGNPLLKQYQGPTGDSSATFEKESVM
Method: as §3
(A) SLC1A4 dose response curves for substrate activated anion currents using two-electrode voltage clamp of Xenopus lavies oocytes (−30 mV). […] (B) SLC1A5 dose response curve for substrate activated anion currents using two-electrode voltage clamp (−30 mV). […] Extracellular solutions contained 50 mM NaSCN.

[5] = test system: SLC1A4; parameters: method as in PMID 14502423; details: cited from earlier work
[6] = test system: ASCT; details: extracellular 300 µM; cited from earlier work
[7] = test system: SLC1A4; details: concentrations up to 1 mM, oocytes expressing SLC1A4; cited from earlier work

T1 sequence (P43003 whole entry): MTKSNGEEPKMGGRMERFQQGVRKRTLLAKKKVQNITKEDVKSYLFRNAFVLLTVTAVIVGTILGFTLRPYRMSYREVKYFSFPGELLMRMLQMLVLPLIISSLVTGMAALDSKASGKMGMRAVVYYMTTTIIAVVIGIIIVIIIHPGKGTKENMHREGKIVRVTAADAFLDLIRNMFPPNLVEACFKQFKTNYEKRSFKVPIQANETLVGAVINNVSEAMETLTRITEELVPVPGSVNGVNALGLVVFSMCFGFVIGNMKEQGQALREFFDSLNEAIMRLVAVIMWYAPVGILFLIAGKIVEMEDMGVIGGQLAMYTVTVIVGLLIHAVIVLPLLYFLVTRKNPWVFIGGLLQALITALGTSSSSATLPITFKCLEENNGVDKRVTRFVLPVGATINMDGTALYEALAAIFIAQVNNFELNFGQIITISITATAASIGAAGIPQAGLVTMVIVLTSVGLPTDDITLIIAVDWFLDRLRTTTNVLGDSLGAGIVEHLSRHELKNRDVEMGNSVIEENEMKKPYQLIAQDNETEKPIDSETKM

SMILES | TEVC current response or block [1] | TEVC current response or block [2] | Km [3] | IC50 [4] | increase in affinity for SLC1A4 over L-proline [5] | heteroexchange release of intracellular radiolabeled ASCT substrates [6] | chloride currents [7]
O=C(O)[C@@H]1C[C@@H](O)CN1 [4-HP, trans-4-hydroxy-L-proline, reference compound] | No TEVC current response or block was observed | No TEVC current response or block was observed | 3.1 mM | 108 µM | approximately 20 fold |  | 
O=C(O)[C@@H]1CCCN1 [L-proline] |  |  |  |  |  | capable of inducing heteroexchange release | does not elicit detectable chloride currents
